Laboratory results taken from patent US8986994B2, “Substituted pyridines and pyrimidines” (Technische Universitaet Wien, priority 2009, dated 2015).
Read-outs that look alike come from different tables or passages of the source.

How the values were obtained:
[1] = tested on: ANF (P19 cells); assay: ANF promoter luciferase reporter assay in P19 cells; format: cell-based, mouse; conditions: for fold induction at 1 µM: Mus musculus, read-out: ANF activity
[2] = tested on: Nkx2.5 (P19 cells); assay: Nkx2.5 luciferase reporter assay in P19 cells; format: cell-based; conditions: Mus musculus, read-out: Nkx2.5 activity
[3] = tested on: ANF (C2C12 cells); assay: ANF promoter luciferase reporter assay in C2C12 cells; format: cell-based, mouse; conditions: for fold induction at 1 µM: Mus musculus, read-out: ANF activity; for luciferase signal in all three reporter assays: ANF, TOPflash and Nkx2.5 reporter assays together
[4] = tested on: TOPflash (C2C12 cells); assay: TOPflash luciferase reporter assay in C2C12 cells; format: cell-based; conditions: Mus musculus, read-out: TOPflash activity
[5] = tested on: Nkx2.5 (C2C12 cells); assay: Nkx2.5 luciferase reporter assay in C2C12 cells; format: cell-based; conditions: Mus musculus, read-out: Nkx2.5 activity
[6] = tested on: TOPflash (P19 cells); assay: TOPflash luciferase reporter assay in P19 cells; format: cell-based; conditions: Mus musculus, read-out: TOPflash activity
[7] = 192 h, P19 cells, 1 μM for 8 days, luciferase signal vs control (untreated cells)
[8] = 192 h, C2C12 cells, 1 μM for 8 days, luciferase signal vs control (untreated cells)

melting point [°C]	Structure (SMILES)	fold induction at 1 µM ([1]; P19, 192 h)	fold induction at 1 µM [1, 7]	fold induction at 1 µM [2, 7]	fold induction at 1 µM [3, 8]	fold induction at 1 µM [4, 8]	fold induction at 1 µM [5, 8]	fold induction at 1 µM [6, 7]	fold induction at 1 µM ([2]; P19, 192 h)	also measured
	COc1ccc(Nc2cc(NC(C)(C)C)ncn2)cc1 [example 20, N^4-tert-Butyl-N^6-(4-methoxyphenyl)pyrimidine-4,6-diamine]	> 2								
	O=[N+]([O-])c1ccc(Nc2cc(NCCO)ncn2)cc1 [example 30, 2-(6-(4-Nitrophenylamino)pyrimidin-4-ylamino)ethan-1-ol]		< 1.3	< 1.3						
	CCOC(=O)c1ccc(Nc2cc(NCCO)ncn2)cc1 [example 34, Ethyl 4-(6-(2-hydroxyethylamino)pyrimidin-4-ylamino)benzoate]		< 1.3	< 1.3						
194 to 196	CCCNc1cc(Nc2ccc(OC)cc2)ncn1 [example 9, N^4-(4-Methoxyphenyl)-N^6-propylpyrimidine-4,6-diamine]		< 1.3	> 2	< 1.3	1.3 to 2	1.3 to 2	< 1.3		
198 to 199	OCCCNc1cc(Nc2ccc(N3CCOCC3)cc2)ncn1 [example 6, 3-(6-(4-Morpholinophenylamino)pyrimidin-4-ylamino)propan-1-ol]		1.3 to 2	< 1.3	1.3 to 2	< 1.3	1.3 to 2	< 1.3		
	COCCNc1cc(Nc2ccc(OC)cc2)ncn1 [example 13, N^4-(2-Methoxyethyl)-N^6-(4-methoxyphenyl)pyrimidine-4,6-diamine]	1.3 to 2								
	OCCNc1cccc(Nc2ccc(Oc3ccccc3)cc2)n1 [example 44, 2-(6-(4-Phenoxyphenylamino)pyridin-2-ylamino)ethan-1-ol]		1.3 to 2	< 1.3	< 1.3	< 1.3	1.3 to 2	< 1.3		
	OCCNc1cc(NC2CCCCC2)ncn1 [example 39, 2-(6-(Cyclohexylamino)pyrimidin-4-ylamino)ethan-1-ol]	< 1.3								
	Clc1cccc(Nc2cc(NC3CCCCC3)ncn2)c1 [example 26, N^4-(3-Chlorophenyl)-N^6-cyclohexylpyrimidine-4,6-diamine]	> 2							> 2	
	COc1ccc(Nc2cccc(NCCCO)n2)cc1 [example 43, 3-(6-(4-Methoxyphenylamino)pyridin-2-ylamino)propan-1-ol]		1.3 to 2	< 1.3	1.3 to 2	1.3 to 2	1.3 to 2	1.3 to 2		luciferase signal in all three reporter assays ([3]; C2C12 cells, 1 μM for 8 days): increase in the luciferase signal in all three reporter assays
	COc1cccc(Nc2cc(NCCO)ncn2)c1 [example 22, 2-(6-(3-Methoxyphenylamino)pyrimidin-4-ylamino)ethan-1-ol]		< 1.3	< 1.3	1.3 to 2	1.3 to 2	< 1.3	< 1.3		
174 to 182	CNc1cc(Nc2ccc(OC)cc2)ncn1 [example 11, N^4-(4-Methoxyphenyl)-N^6-methylpyrimidine-4,6-diamine]		< 1.3	< 1.3	< 1.3	1.3 to 2	1.3 to 2	> 2		
	OCCCNc1cc(Nc2cccc(Cl)c2)ncn1 [example 31, 3-(6-(3-Chlorophenylamino)pyrimidin-4-ylamino)propan-1-ol]	1.3 to 2							1.3 to 2	
	COc1cccc(Nc2cc(NC3CCCCC3)ncn2)c1 [example 37, N^4-Cyclohexyl-N^6-(3-methoxyphenyl)pyrimidine-4,6-diamine]	1.3 to 2							> 2	

Structure (SMILES)	melting point [°C]	fold induction at 1 µM ([1]; P19, 192 h)	fold induction at 1 µM [1, 7]	fold induction at 1 µM [2, 7]	fold induction at 1 µM [3, 8]	fold induction at 1 µM [4, 8]	fold induction at 1 µM [5, 8]	fold induction at 1 µM [6, 7]	fold induction at 1 µM ([2]; P19, 192 h)	also measured
COc1ccc(Nc2cc(NC3CCCCC3)ncn2)cc1 [example 3, N^4-Cyclohexyl-N^6-(4-methoxyphenyl)pyrimidine-4,6-diamine]	218 to 219	> 2							> 2	luciferase signal in all three reporter assays ([3]; C2C12 cells, 1 μM for 8 days): increase in the luciferase signal in all three reporter assays; fold induction at 1 µM ([3]; C2C12, 192 h): > 2; fold induction at 1 µM ([4]; C2C12, 192 h): 1.3 to 2; fold induction at 1 µM ([5]; C2C12, 192 h): > 2; luciferase signal in all three reporter assays ([1]; P19 cells, 1 μM for 8 days, ANF, TOPflash and Nkx2.5 reporter assays together): increase in the luciferase signal in all three reporter assays; fold induction at 1 µM ([6]; P19, 192 h): > 2
CCNc1cc(Nc2ccc(OC)cc2)ncn1 [example 10, N^4-Ethyl-N^6-(4-methoxyphenyl)pyrimidine-4,6-diamine]	190 to 193	1.3 to 2							< 1.3	luciferase signal in all three reporter assays ([3]; C2C12 cells, 1 μM for 8 days): increase in the luciferase signal in all three reporter assays; fold induction at 1 µM ([3]; C2C12, 192 h): 1.3 to 2; fold induction at 1 µM ([4]; C2C12, 192 h): 1.3 to 2; fold induction at 1 µM ([5]; C2C12, 192 h): 1.3 to 2; fold induction at 1 µM ([6]; P19, 192 h): < 1.3
